pIC50: −log10 of the molar value. Where two headings read alike, the source gives them in different places. Marks after values point to notes of the source that are not given here.
Assays:
Assay type in all cases: cell-based
[1] = system: BRD pathogens, M. haemolytica and P. multocida; assay: MIC screening panel, BRD pathogens (CLSI broth micro-dilution)
Description: Primary screening of the compounds of the invention included the evaluation of antibacterial activity of analogs through determination of microbial inhibition concentration (MIC) as per CLSI guidelines. The screening panel included the relevant BRD pathogens: 1) M. haemolytica (e.g., 12726, 46571 and 49023, all AHDRCC; and 33396 (ATCC)); and 2) P. multocida (e.g., 34135 and 46572 (both AHDRCC) and 43137 (ATCC)). In some instances, H. somni (A700025K) pathogens were also included in the screening panel. The AHDRCC strains originated from the Zoetis BRD/SRD surveillance program and refer to the Animal Health Development and Research Culture Collection. In addition, the screen assessed S. aureus (29213 ATCC) as a representative Gram-positive isolate, E.faecalis (19433 ATCC) as a commensal gram-positive gastrointestinal bacterium and E. coli (100, 3110 and 25922 (ATCC)) for the evaluation of efflux potential. The screening panel BRD pathogens were assessed in determining antibacterial activity of the Formula (1) compounds.
All relevant BRD pathogens were initially screened at a top concentration of 64 μg/mL of a Formula (1) compound in an eleven-point dilution series. […] If an Example was purified further, the MICs moved […] essentially two dilutions across all strains tested in the screening panel.
In-Vitro MIC Model Compounds were analyzed for antibacterial activity against a panel of animal health specific gram-positive and gram-negative clinical strains by diluting compounds in DMSO to an appropriate stock concentration to determine the Minimal Inhibitory Concentration (MIC) via a semi-automated broth micro-dilution method (CLSI reference method) with QC strains and anti-microbial agent(s). Specifically, bacteria were grown overnight on TSA w/5% sheep blood agar plates and diluted in saline buffer to a McFarland Standard 0.5, then further diluted in cation-ion adjusted Mueller Hinton Broth to a final concentration of approximately 5×10^5 CFU/mL. 100 μL of inoculated media was added to 96-well plate(s) with 3 μL of serially diluted compound in each row. Depending on strain (see CLSI reference method), bacteria were incubated 18-22 hours at 35-37° C. in ambient air, with 5% CO2 or anaerobically (up to 48 hours).

[2] = system: TNF-α; assay: Whole bovine blood assay, LPS-induced TNF-α; details: fresh whole bovine blood, LPS stimulant; top drug concentration 250 μM
Outline: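 Fresh heparinized bovine whole blood was preincubated with compound 4 h at 37 °C, then stimulated with LPS (final 1 μg/mL) for 18 h at 37 °C. Plasma TNF-α was quantified by MSD U-Plex chemiluminescent immunoassay, normalized to total protein (BCA), and IC50 taken for LPS-induced TNF-α inhibition.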

[3] = system: IL-6; assay: Whole bovine blood assay, LPS-induced IL-6; details: fresh whole bovine blood, LPS stimulant, top drug concentration 250 μM
[4] = system: IL-1β; assay: Whole bovine blood assay, LPS-induced IL-1β (inhibition / overstimulation); details: drug concentration giving overstimulation (OS) of LPS-induced IL-1β, top concentration 250 μM
Outline: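 Fresh heparinized bovine whole blood was preincubated with compound at varying concentrations for 4 h at 37 °C, then stimulated with 1 μg/mL LPS for 18 h. Plasma IL-1β was measured by MSD chemiluminescent immunoassay and normalized to total protein. Values cover inhibition and concentration-dependent overstimulation.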

[5] = Table B, at least one BRD pathogenic strain, top concentration 64 μg/mL
[6] = Table C, at least one BRD pathogenic strain, top concentration 64 μg/mL
[7] = Table B, at least one BRD pathogenic strain, top concentration 64 μg/mL, read-out: MIC flag (*) for BRD pathogenic strains

| Compound | MIC flag (*) for BRD pathogenic strains [1, 5] | pIC50 [2] | pIC50 [3] | MIC [1, 7] | other results |
| --- | --- | --- | --- | --- | --- |
| (2R,3S,4R,5R,8R,10R,11R,12S,13S,14R)-2-ethyl-3,4,10-trihydroxy-13-[(2R,4R,5S,6S)-5-hydroxy-4-methoxy-4,6-dimethyl-5-(propylaminomethyl) oxan-2-yl]oxy-11-[(2S,3R,4S,6R)-3-hydroxy-6-methyl-4-[methyl-[[4-(trifluoromethyl)phenyl]sulfamoyl]-amino]oxan-2-yl]oxy-3,5,6,8,10,12,14-heptamethyl-15-oxo-1-oxa-6-azacyclopentadecane [Example B-159] | B-159* (MIC ≤64 μg/mL for at least one BRD pathogenic strain) | 5.40 |  |  |  |
| N-((2S,3R,4S,6R)-2-(((2R,3S,4R,5R,8R,10R,11R,12S,13S,14R)-2-ethyl-3,4,10-trihydroxy-13-(((2R,4R,5S,6S)-5-hydroxy-4-methoxy-4,6-dimethyl-5-((propylamino)methyl)tetrahydro-2H-pyran-2-yl)oxy)-3,5,6,8,10,12,14-heptamethyl-15-oxo-1-oxa-6-azacyclopentadecan-11-yl)oxy)-3-(4-fluorophenoxy)-6-methyltetrahydro-2H-pyran-4-yl)-N, 1-dimethyl-1H-imidazole-2-sulfonamide [Example B-162] | B-162* (MIC ≤64 μg/mL for at least one BRD pathogenic strain) | 5.10 | 5.05 |  |  |
| (2R,3S,4R,5R,8R,10R,11R,12S, 13S, 14R)-2-ethyl-3,4, 10-trihydroxy-13-[(2R,4R,5S,6S)-5-hydroxy-4-methoxy-4,6-dimethyl-5-(piperidin-1-ylmethyl) oxan-2-yl]oxy-11-[(2R,3S,4R,6S)-3-hydroxy-4-[(4-methoxyphenyl) sulfamoyl-methylamino]-6-methyloxan-2-yl]oxy-3,5,8,10, 12,14-hexamethyl-15-oxo-1-oxa-6-azacyclopentadecane [Example C-27] |  | 4.14 | 4.14 |  | MIC flag (*) for BRD pathogenic strains [1, 6]: C-27* (MIC ≤64 μg/mL for at least one BRD pathogenic strain) |
| CCCNC[C@]1(O)[C@H](C)O[C@@H](O[C@H]2[C@H](C)[C@@H](O[C@@H]3O[C@H](C)C[C@H](N(C)S(=O)(=O)NCCc4ccccc4)[C@H]3O)[C@](C)(O)C[C@@H](C)CN[C@H](C)[C@@H](O)[C@](C)(O)[C@@H](CC)OC(=O)[C@@H]2C)C[C@@]1(C)OC [Example B-40, (2R,3S,4R,5R,8R,10R,11R,12S,13S,14R)-2-ethyl-3,4,10-trihydroxy-13-[(2R,4R,5S,6S)-5-hydroxy-4-methoxy-4,6-dimethyl-5-(propylaminomethyl)oxan-2-yl]oxy-11-[(2S,3R,4S,6R)-3-hydroxy-6-methyl-4-[methyl (2-phenylethylsulfamoyl)amino]oxan-2-yl]oxy-3,5,8,10,12,14-hexamethyl-15-oxo-1-oxa-6-azacyclopentadecane] |  |  |  | ≤ 64 mg/L |  |
| CC[C@H]1OC(=O)[C@H](C)[C@@H](O[C@H]2C[C@@](C)(OC)[C@](O)(CC#N)[C@H](C)O2)[C@H](C)[C@@H](O[C@@H]2O[C@H](C)C[C@H](N(C)S(=O)(=O)c3ccc(Cl)cc3)[C@H]2O)[C@](C)(O)C[C@@H](C)CN[C@H](C)[C@@H](O)[C@]1(C)O [Example A6-1, 4-chloro-N-((2S,3R,4S,6R)-2-(((2R,3S,4R,5R,8R,10R,11R,12S,13S,14R)-13-(((2R,4R,5S,6S)-5-(cyanomethyl)-5-hydroxy-4-methoxy-4,6-dimethyltetrahydro-2H-pyran-2-yl)oxy)-2-ethyl-3,4,10-trihydroxy-3,5,8,10,12,14-hexamethyl-15-oxo-1-oxa-6-azacyclopentadecan-11-yl)oxy)-3-hydroxy-6-methyltetrahydro-2H-pyran-4-yl)-N-methylbenzenesulfonamide] |  |  |  |  | MIC ([1]; BRD pathogens M. haemolytica and P. multocida, read-out: antibacterial / non-antibacterial (MIC class)): > 64 mg/L |
| CCCNC[C@]1(O)[C@H](C)O[C@@H](O[C@H]2[C@H](C)[C@@H](O[C@@H]3O[C@H](C)C[C@H](N(C)S(=O)(=O)c4ccccc4)[C@H]3Oc3ccc(F)cc3)[C@](C)(O)C[C@@H](C)CN(CC)[C@H](C)[C@@H](O)[C@](C)(O)[C@@H](CC)OC(=O)[C@@H]2C)C[C@@]1(C)OC [Example B-161, N-((2S,3R,4S,6R)-2-(((2R,3S,4R,5R,8R,10R,11R,12S,13S,14R)-2,6-diethyl-3,4,10-trihydroxy-13-(((2R,4R,5S,6S)-5-hydroxy-4-methoxy-4,6-dimethyl-5-((propylamino)methyl)tetrahydro-2H-pyran-2-yl)oxy)-3,5,8,10,12,14-hexamethyl-15-oxo-1-oxa-6-azacyclopentadecan-11-yl)oxy)-3-(4-fluorophenoxy)-6-methyltetrahydro-2H-pyran-4-yl)-N-methylbenzenesulfonamide] |  |  |  | ≤ 64 mg/L |  |
| CCCNC[C@]1(O)[C@H](C)OC(O[C@H]2[C@H](C)[C@@H](O[C@@H]3O[C@H](C)C[C@H](N(C)S(=O)(=O)c4c(C)noc4C)[C@H]3Oc3ccc(OC)cc3)[C@](C)(O)C[C@@H](C)CN[C@H](C)[C@@H](O)[C@](C)(O)[C@@H](CC)OC(=O)[C@@H]2C)C[C@@]1(C)OC (stereo partly shown) [Example B-116] | B-116* (MIC ≤64 μg/mL for at least one BRD pathogenic strain) |  |  |  |  |
| (2R,3S,4R,5R,8R,10R,11R, 12S, 13S, 14R)-11-[(2R,3S,4R,6S)-4-[[3-(dimethylamino)phenyl]sulfamoyl-methylamino]-3-hydroxy-6-methyloxan-2-yl]oxy-2-ethyl-3,4,10-trihydroxy-13-[(2R,4R,5S,6S)-5-hydroxy-4-methoxy-4,6-dimethyl-5-(piperidin-1-ylmethyl) oxan-2-yl]oxy-3,5,8,10, 12, 14-hexamethyl-15-oxo-1-oxa-6-azacyclopentadecane [Example C-25] |  | 4.43 |  |  | MIC flag (*) for BRD pathogenic strains [1, 6]: C-25* (MIC ≤64 μg/mL for at least one BRD pathogenic strain) |
| CCCNC[C@]1(O)[C@H](C)OC(O[C@H]2[C@H](C)[C@@H](O[C@@H]3O[C@H](C)C[C@H](N(C)S(=O)(=O)c4ccc(-c5cnco5)s4)[C@H]3Oc3ccc(OC)cc3)[C@](C)(O)C[C@@H](C)CN[C@H](C)[C@@H](O)[C@](C)(O)[C@@H](CC)OC(=O)[C@@H]2C)C[C@@]1(C)OC (stereo partly drawn) [Example B-120, N-[(2S,3R,4S,6R)-2-[[(2R,3S,4R,5R,8R,10R,11R,12S,13S, 14R)-2-ethyl-3,4,10-trihydroxy-13-[(4R,5S,6S)-5-hydroxy-4-methoxy-4,6-dimethyl-5-(propylaminomethyl)oxan-2-yl]oxy-3,5,8, 10, 12, 14-hexamethyl-15-oxo-1-oxa-6-azacyclopentadec-11-yl]oxy]-3-(4-methoxyphenoxy)-6-methyloxan-4-yl]-N-methyl-5-(1,3-oxazol-5-yl)thiophene-2-sulfonamide] |  |  |  | ≤ 64 mg/L | pIC50 ([3]; Bos taurus): 5.22 |
| CC[C@H]1OC(=O)[C@H](C)[C@@H](O[C@H]2C[C@@](C)(OC)[C@](O)(CN3CCCCC3)[C@H](C)O2)[C@H](C)[C@@H](O[C@@H]2O[C@H](C)C[C@H](N(C)S(=O)(=O)c3nccn3C)[C@H]2Oc2ccnc(F)c2)[C@](C)(O)C[C@@H](C)CN[C@H](C)[C@@H](O)[C@]1(C)O [Example C-49] |  | 5.22 | 5.05 |  | minimal effective concentration [4]: 6 µM |

Reference: patent publication US20250236616A1, “IMMUNOMODULATING AZALIDES” (Zoetis Services LLC, priority 2021, published 2025)
